Source: the SangsterLogP compilation
Non-standard residues stand in square brackets, D forms with d. Residues, ends and D or L forms follow the SMILES beside them.

What was measured:
[1] = method code SF-HPLC, from PMID: 4074422; details: pH 7.0
[2] = method code SF-RC, from DOI: 10.1007/s00259-007-0645-5, PMID: 18057934; details: pH 7.4
[3] = method code SF-AS, from DOI: 10.1016/j.ejmech.2015.02.036, PMID: 25728022; details: pH 7.4
[4] = method code SF-RC, from DOI: 10.1002/jlcr.3310, PMID: 26094722; details: pH 7.4
[5] = method code SF-AS, from DOI: 10.1021/es00127a005
[6] = method code SF, from DOI: 10.1021/jm00123a006, PMID: 2918500; details: pH 7.4
[7] = method code SF-HPLC, from DOI: 10.1208/s12249-013-0046-y, PMID: 24297599; details: pH 4.0
[8] = method code SF-RC, from DOI: 10.1111/j.2042-7158.1976.tb04141.x, PMID: 6703
[9] = method code SF, from Blakemore, C.; Brown, H.; Durant, J.; Emmett, C.; Ganellin, R.; Parsons, E.; Rasmussen, C. (1980). SK&F 92994: a new histamine H2-receptor antagonist. COMMUNICATIONS: Part II. Br. J. Pharmacol., …; details: pH 8.5
[10] = method code SF-RC, from DOI: 10.1515/ract-2013-2119
[11] = method code SF-HPLC, from DOI: 10.1002/jps.2600840622; details: pH 7.0
[12] = method code SF-RC, from DOI: 10.1016/j.nucmedbio.2007.03.011, PMID: 17591556; details: pH 8.9
[13] = method code SF-HPLC, from Bhosale, A.; Agrawal, G.; Mishra, P. (2004). Preparation and characterization of mutual prodrugs of ibuprofen. Indian Journal of Pharmaceutical Sciences, 66, 158-163.; details: pH 1.2
[14] = method code pH-metric titration, from DOI: 10.1002/(sici)1096-9063(199607)47:3<265::aid-ps416>3.0.co;2-f
[15] = method code SF-AS, from DOI: 10.1002/chin.197711219; details: pH 7.4
[16] = method code SF, from DOI: 10.1074/jbc.m009093200, PMID: 11092892; details: pH 7.4
[17] = method code SF-AS, from DOI: 10.1007/bf02857814, PMID: 1608986
[18] = not given; remark: listed apart in the source
[19] = method code SF-AS, from DOI: 10.1016/0147-6513(87)90041-8, PMID: 3830021
[20] = not given; remark: listed apart in the source
[21] = not given; remark: listed apart in the source
[22] = method code SF-RC, from PMID: 2883979; details: pH 10.0
[23] = method code SF-RC, from DOI: 10.1023/a:1015825912542, PMID: 1808606; details: pH 7.2
[24] = method code SF-AS, from DOI: 10.1016/0006-2952(93)90503-o, PMID: 8373444; details: pH 7.4
[25] = method code SF-HPLC, from DOI: 10.1023/a:1007546905874, PMID: 11205732; details: pH 7.4
[26] = method code SF-HPLC, from DOI: 10.1002/etc.5620170216
[27] = method code SF-RC, from DOI: 10.1016/j.nucmedbio.2007.04.005, PMID: 17591554; details: pH 7.4
[28] = method code SF, from DOI: 10.1016/s0378-5173(97)00352-9
[29] = method code SF-AS, from DOI: 10.1016/j.bmcl.2014.05.029, PMID: 24930836
[30] = method code G-RC, from DOI: 10.1016/0300-483x(85)90031-9, PMID: 4049435
[31] = method code SF-RC, from DOI: 10.1016/j.mibio.2003.09.009; details: pH 7.4
[32] = method code SF-HPLC, from DOI: 10.1002/jps.2600830510, PMID: 8071813
[33] = not given; remark: listed apart in the source
[34] = not given; remark: listed apart in the source
[35] = method code SF-RC, from DOI: 10.1021/jm050166g.s001, PMID: 16162001; details: pH 7.4
[36] = from Xu, W.; Sun, J.; Zhang, T.; Ma, B.; Chen, D.; He, Z. (2007). Determination of equilibrium solubility of oridonin and its apparent oil-water partition coefficient by HPLC. Journal of Shenyang …
[37] = not given; remark: listed apart in the source
[38] = not given; remark: listed apart in the source
[39] = method code SF-HPLC, from DOI: 10.1023/a:1016462801968, PMID: 3334410
[40] = method code SF-RC, from DOI: 10.1021/jm300199g, PMID: 22540974; details: pH 7.4
[41] = method code SF, from PMID: 21667; details: pH 10.1

SMILES: O=C1CCc2cc(OCCCCc3nnnn3C3CCCCC3)ccc2N1
- logD [1]: 2.76

SMILES: CCN(CC)C(=O)Cc1c(-c2ccc(I)cc2)nc2ccc(Cl)cn12
- logD [2]: 3.1

SMILES: C=CCn1c(C)nc2cc(Nc3nc(N4CCOCC4)nc4[nH]cnc34)ccc21
- logD [3]: 1.59

SMILES: CC(C)(C)n1ncc(OCc2cccc(Cn3cc(CCF)nn3)c2)c(Cl)c1=O
- logD [4]: 2.54

SMILES: Oc1ccc(C(c2ccccc2)c2ccc(O)cc2)cc1
- logP [5]: 4.3

SMILES: Nc1ccc(CCN2CCN(c3cccc(C(F)(F)F)c3)CC2)cc1I
- logD [6]: 3.69

SMILES: CC[C@@]1(O)C(=O)OCc2c1cc1n(c2=O)Cc2cc3c(N)cccc3nc2-1
- logD [7]: 1.26

SMILES: O=C(CCCN1CCN(c2ccccn2)CC1)c1ccc(F)cc1
- logP [8]: 3.3

SMILES: Cc1[nH]cnc1CSCCNc1nc(=O)c(Cc2ccc3c(c2)OCO3)c[nH]1
- logD [9]: 2.11

SMILES: Fc1ccc(CN2CCN(Cc3cnn4ccccc34)CC2)cc1
- logP [10]: 2.8

SMILES: CCCN1CCN(c2cc3c(cc2F)c(=O)c(C(=O)O)cn3CC)CC1
- logD [11]: 1.05

SMILES: CN(C(=O)CF)c1cccc(-c2ccnc3c(C(=O)c4cccs4)cnn23)c1
- logD [12]: 1.4

SMILES: CC(C)Cc1ccc(C(C)C(=O)Oc2ccccc2C(N)=O)cc1 (configuration not stated)
- logD [13]: 1.54

SMILES: CC[C@H]1C[C@]2(C)[C@@H](O)CC[C@H]2[C@@H]2CCc3cc(O)ccc3[C@@H]12
- logP: 3.8

SMILES: CCO/N=C(\CC)C1=C(O)CC(c2c(C)cc(C)cc2C)CC1=O (configuration not stated)
- logP [14]: 4.46

SMILES: O=C1C(=C2C=CN(CCN3CCOCC3)C=C2)C(=O)c2ccccc21
- logD [15]: 2.01

SMILES: COC1=C(OC)C(=O)C(CCCCCCCCCCBr)=C(C)C1=O
- logD [16]: 2.49

SMILES: CCn1cc(C(=O)NC(CCCNC(=N)N)C(=O)OC)c(=O)c2ccc(C)nc21 (configuration not stated)
- logP [17]: 0.39

SMILES: c1ccc2c(c1)-c1cccc3c1c-2cc1ccccc13
- logP [18]: 6.06

SMILES: COC(=O)CCN(CCC(=O)OC)c1ccc(/N=N/c2c(Cl)cc([N+](=O)[O-])cc2Br)cc1
- logP [19]: 4.1

SMILES: O=S(c1ccc(F)cc1)C1CCN(CCc2ccc(F)cc2F)CC1 (configuration not stated)
- logP [20]: 2.67

SMILES: COc1ccc(N2CCn3c(nc4ccccc4c3=O)C2C)cc1 (configuration not stated)
- logP [21]: 1.29

SMILES: CN1CCC(N(Cc2ccccc2)c2ccccc2)CC1
- logD [22]: 2.6

SMILES: CC(=O)N[C@H](Cc1ccccc1)C(=O)N[C@H](Cc1ccccc1)C(N)=O (Ac-[dF]-[dF]-NH2)
- logD [23]: 1.19

SMILES: O=C1OC(c2ccc(O)c(S(=O)(=O)O)c2)(c2ccc(O)c(S(=O)(=O)O)c2)c2c(Br)c(Br)c(Br)c(Br)c21
- logD [24]: -0.55

SMILES: O=C1OC(c2ccc(O)cc2)(c2ccc(O)cc2)c2ccccc21
- logD [25]: 3.36

SMILES: c1ccc2cc3c(cc2c1)-c1cccc2cccc-3c12
- logP [26]: 6.11

SMILES: COc1ccc(/C=C2\CCCN=C2c2cccnc2)c(OC)c1
- logD [27]: 2.82

SMILES: C/C(=C(/OCCOc1ccc(Cl)cc1)c1ccc(Cl)cc1Cl)n1ccnc1
- logP [28]: 5.76

SMILES: Cc1cc(=O)oc2cc(OCC(O)Cn3cncn3)cc(OCC(O)Cn3cncn3)c12 (configuration not stated)
- logP [29]: 0.65

SMILES: c1ccc2c(c1)ccc1[nH]c3ccc4ccccc4c3c12
- logP [30]: 5.55

SMILES: CN1CCc2cc(Cl)c(O)cc2C(c2cccc3ccoc23)C1 (configuration not stated)
- logD [31]: 3

SMILES: O=C(OCCCN1CCOCC1)c1ccccc1Nc1c(Cl)cccc1Cl
- logP [32]: 2.81

SMILES: CCCN(C(C)C)C1COc2cccc(C(=O)NC(C)C)c2C1 (configuration not stated)
- logP [33]: 3.27

SMILES: O=C1OC2(c3ccc(O)cc3Oc3cc(O)ccc32)c2ccccc21
- logP [34]: 4.3

SMILES: CNc1ccc(C=Cc2ccc(OCC(CO)CF)cc2)cc1 (configuration not stated)
- logD [35]: 2.95

SMILES: C=C1C(=O)[C@]23C(O)C1CC[C@H]2[C@@]12CO[C@]3(O)C(O)[C@@H]1C(C)(C)CCC2O (some centres not stated)
- logP [36]: 1.66

SMILES: c1ccc2c3c(ccc2c1)-c1cccc2cccc-3c12
- logP [37]: 6.04

SMILES: CC(=O)C1=C(O)C2C3c4c[nH]c5cccc(c45)CC3C(C)(C)N2C1=O (configuration not stated)
- logP [38]: 3.83

SMILES: CC(C)(C)C(=O)OCC(COC(=O)C(C)(C)C)OCn1cnc2c(=O)[nH]c(N)nc21
- logP [39]: 1.71

SMILES: CC(C)[C@H](C(=O)NO)N(Cc1ccccc1)S(=O)(=O)c1ccc(OCCF)cc1
- logD [40]: 2.02

SMILES: COc1ccccc1N1CCN(CCCNc2cc(=O)n(C)c(=O)n2C)CC1
- logD [41]: 1.6
